Columns and labels:
[1] = system: lymphoma cell line L5178Y TK-/-; assay: Test (d): cytotoxicity to lymphoma cell line L5178Y TK-/- in vitro; assay type: cell-based; details: Mus musculus
From the text: (d) An assay which determines the ability of a test compound to be cytotoxic to the lymphoma cell line L5178Y TK-/- in vitro. The lymphoma cell line L5178Y TK-/- is deficient in the enzyme thymidine kinase with phosphorylates thymidine and thus operates to generate a pool of thymidylate when de novo synthesis of thymidylate is prevented by the presence of an effective amount of an inhibitor of thymidylate synthase. The L5178Y TK-/- cell line is thereby more sensitive to the presence of an inhibitor of thymidylate synthase. [L5178Y TK-/- was obtained by mutation of the parent L5178Y cell line which is described by, for example, Fischer et al., Methods in Medical Research, 1964, 10, 247].

[2] = system: human breast cancer cell line MCF-7; assay: Test (c): inhibition of growth of human breast cancer cell line MCF-7 in cell culture; assay type: cell-based; details: MCF7, MCF-7 cell growth
From the text: (c) An assay which determines the ability of a test compound to inhibit the growth of the human breast cancer cell line MCF-7 in cell culture. The test is similar to that described by Lippman et al. (Cancer Res., 1976, 36, 4595) and […]

[3] = system: leukaemia cell line L1210; assay: Test (b): inhibition of growth of leukaemia cell line L1210 in cell culture; assay type: cell-based; details: Mus musculus
From the text: (b) An assay which determines the ability of a test compound to inhibit the growth of the leukaemia cell line L1210 in cell culture. The test is similar to that described in UK Patent Specification No. 2065653B and has been described by Jones et al., J. Med. Chem., 1985, 28, 1468;

thymidylate synthase = target: T1, thymidylate synthase (Mus musculus, UniProt P07607); assay: Test (a): in vitro inhibition of thymidylate synthase; assay type: biochemical; details: partially purified thymidylate synthase from L1210 mouse leukaemia cells
T1 construct: Thymidylate synthase was obtained in partially purified form from L1210 mouse leukaemia cells; endogenous in cells; host or cells: L1210 mouse leukaemia cells (enzyme partially purified)
T1 sequence (P07607 whole entry): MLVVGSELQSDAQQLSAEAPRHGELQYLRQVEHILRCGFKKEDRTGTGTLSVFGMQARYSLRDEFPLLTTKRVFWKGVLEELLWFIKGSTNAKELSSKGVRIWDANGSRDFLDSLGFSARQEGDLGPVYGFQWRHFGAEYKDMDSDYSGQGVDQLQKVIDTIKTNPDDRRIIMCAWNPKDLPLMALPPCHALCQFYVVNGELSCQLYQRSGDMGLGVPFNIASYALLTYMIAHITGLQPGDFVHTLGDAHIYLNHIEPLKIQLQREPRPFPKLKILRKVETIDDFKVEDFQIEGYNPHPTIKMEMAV
From the text: (a) An in vitro assay which determines the ability of a test compound to inhibit the enzyme thymidylate synthase. Thymidylate synthase was obtained in partially purified form from L1210 mouse leukaemia cells and utilised using the procedures described by Jackman et al. (Cancer Res., 1986, 46, 2810 and Sikora et al., Biochem. Pharmacol. 1988, 37 4047);

[4] = Cancer Treatment Reports, 1986, 70, 1335; in words; cited from earlier work
[5] = system: human breast, ovarian and liver cancer; details: clinical, in words; cited from earlier work

Structure (SMILES) | IC50 [1] [nM] | IC50 [2] [nM] | IC50 [3] [nM] | IC50 (thymidylate synthase) [nM] | toxicity in humans [4] | activity against human breast, ovarian and liver cancer [5]
C#CCN(c1ccc(C(=O)N[C@@H](CCC(=O)O)C(=O)O)cc1)C1CCc2cc3nc(C)[nH]c(=O)c3cc21 (mixture of isomers) [Example 1, N-{p-[N-((6RS)-2-methyl-4-oxo-3,4,7,8-tetrahydro-6H-cyclopenta[g]quinazolin-6-yl)-N-(prop-2-ynyl)amino]benzoyl}-L-glutamic acid] | 720 | 20 | 280 | 7 |  | 
C#CCN(Cc1ccc2nc(N)[nH]c(=O)c2c1)c1ccc(C(=O)N[C@@H](CCC(=O)O)C(=O)O)cc1 [CB3717] |  |  |  |  | shows symptoms of toxicity in humans, particularly in relation to the liver and kidney | promising activity against human breast, ovarian and liver cancer

— patent publication US5789417A, “Tricyclic compounds with pharmaceutical activity” (Zeneca Limited, priority 1992, dated 1998)
